Measurements: patent US20090281049A1, “New use of ginsenoside compound-k in manufacturing medicaments” (priority 2006, published 2009)

Tests used:
Details in all cases: 1 mg/kg po
[1] = test system: carrageenan-induced acute inflammation in mice; test: Carrageenan-induced paw edema in mice; assay type: in vivo, Kunming mice
[2] = test system: carrageenan-induced acute inflammation in rats; test: Carrageenan-induced paw edema in rats; assay type: in vivo, Rat, SD strain
Protocol: Animals were firstly divided into large dose group: 10 mg/kg, iv, medium dose group: 5 mg/kg, iv, small dose group: 2.5 mg/kg, iv, an Indomethacin group: 1 mg/kg, po and a blank control group: physiological saline 10 mg/kg, iv. The animals were administered by the foregoing method for 3 days. The volume of the right hind paw of the rats was measured using hydroplethismometer before inflammation induced. 1 hour after the last administration, 0.1 ml 1% carrageenan was injected into the plantar surface of the right hind paw in order to induce inflammation. The volume of the right hind paw of the rats was measured by hydroplethismometer every other hour thereafter respectively. Swell rate and inhibition rate were calculated by the same method as above. Differences among groups were compared with t test.

[3] = test system: Adjuvant Arthritis in rats; test: Preventive effect on adjuvant induced adjuvant arthritis in rats; assay type: in vivo, Rat, SD strain
Protocol: (§1) Freund's Adjuvant Complete, purchased from Sigma Company, was injected into the plantar surface of the right hind paw by 0.1 ml in order to induce inflammation in rats.
(§2) Animals were firstly divided into large dose group: 10 mg/kg, iv, medium dose group: 5 mg/kg, iv, small dose group: 2.5 mg/kg, iv, Indomethacin group: 1 mg/kg, po, Tripterygium Wilfordii Hook group: 1.5 mg/kg, po and blank control group: physiological saline 10 mg/kg, iv. The volume of the right hind paw of the rats was measured by using hydroplethismometer before inflammation induced. Then 0.1 ml Freund's Adjuvant Complete was injected into the plantar surface of the right hind paw in order to induce inflammation in rats. The rats were grouped by the foregoing division way in the succeeding day, and to be administered for 15 days. The volume of paw was measured in regular intervals. Swell rate and inhibition rate were calculated by the same method as the foregoing. Differences among groups were compared by t test.

[4] = test system: Adjuvant Arthritis in rats; test: Treatment effect on adjuvant induced adjuvant arthritis in rats; assay type: in vivo, Rat, SD strain
Protocol: as §1
as §2, with “1.5 mg/kg, po. and blank” for “1.5 mg/kg, po and blank”, “in rats. 20 days after inflammation induced, the rats were” for “in rats. The rats were”, “foregoing division method and to” for “foregoing division way in the succeeding day, and to”, “administered for 8 days. The” for “administered for 15 days. The”, “were calculated with the same” for “were calculated by the same”, “were compared with t test.” for “were compared by t test.”

## COc1ccc2c(c1)c(CC(=O)O)c(C)n2C(=O)c1ccc(Cl)cc1 [Indomethacin, reference compound]
[1]; 0 h
  swell value: 1.47 ± 0.14 mL
[1]; 1 h
  inhibition rate: <2.39> %
  swell rate: (67.11 ± 17.30) %
  swell value: 2.44 ± 0.19 mL
[1]; 2 h
  inhibition rate: <16.11> %
  swell rate: (60.95 ± 18.36) %
  swell value: 2.35 ± 0.20 mL
[1]; 4 h
  inhibition rate: <36.57> %
  swell rate: (51.04 ± 14.09) %
  swell value: 2.21 ± 0.11 mL
[1]; 6 h
  inhibition rate: <24.41> %
  swell rate: (55.36 ± 19.90) %
  swell value: 2.26 ± 0.11 mL
[2]; 0 h
  swell value: 1.34 ± 0.15 mL
[2]; 1 h
  inhibition rate: <4.23> %
  swell rate: (22.51 ± 10.19) %
  swell value: 1.68 ± 0.10 mL
[2]; 2 h
  inhibition rate: <20.44> %
  swell rate: (25.65 ± 14.10) %
  swell value: 1.72 ± 0.16 mL
[2]; 3 h
  inhibition rate: <20.17> %
  swell rate: (33.28 ± 13.54) %
  swell value: 1.82 ± 0.17 mL
[2]; 4 h
  inhibition rate: <26.76> %
  swell rate: (28.45 ± 15.71) %
  swell value: 1.77 ± 0.22 mL
[2]; 5 h
  inhibition rate: <37.84> %
  swell rate: (23.04 ± 11.45) %
  swell value: 1.69 ± 0.15 mL
[3]; 0 day
  swell value: 1.23 ± 0.11 mL
[3]; 2 day
  inhibition rate: <27.67> %
  swell rate: (52.34 ± 15.07) %
  swell value: 1.85 ± 0.09 mL
[3]; 4 day
  inhibition rate: <20.69> %
  swell rate: (70.99 ± 17.35) %
  swell value: 2.08 ± 0.13 mL
[3]; 6 day
  inhibition rate: <12.34> %
  swell rate: (78.32 ± 23.41) %
  swell value: 2.17 ± 0.17 mL
[3]; 9 day
  inhibition rate: <4.11> %
  swell rate: (69.44 ± 27.12) %
  swell value: 2.06 ± 0.23 mL
[3]; 11 day
  inhibition rate: <32.39> %
  swell rate: (52.68 ± 12.02) %
  swell value: 1.86 ± 0.13 mL
[3]; 13 day
  inhibition rate: <35.93> %
  swell rate: (53.00 ± 15.57) %
  swell value: 1.86 ± 0.13 mL
[3]; 15 day
  inhibition rate: <35.50> %
  swell rate: (52.00 ± 11.27) %
  swell value: 1.86 ± 0.13 mL
[4]; 0 day
  swell value: 1.14 ± 0.05 mL
[4]; 19 day
  inhibition rate: <18.65> %
  swell rate: (80.03 ± 17.69) %
  swell value: 2.04 ± 0.20 mL
[4]; 21 day
  inhibition rate: <19.05> %
  swell rate: (85.98 ± 15.49) %
  swell value: 2.11 ± 0.17 mL
[4]; 23 day
  inhibition rate: <19.09> %
  swell rate: (86.16 ± 15.90) %
  swell value: 2.11 ± 0.17 mL
[4]; 26 day
  inhibition rate: <20.41> %
  swell rate: (89.32 ± 16.25) %
  swell value: 2.15 ± 0.16 mL
[4]; 30 day
  inhibition rate: <12.14> %
  swell rate: (92.39 ± 20.26) %
  swell value: 2.18 ± 0.23 mL
